Active and inactive are the calls of the source. No cut-off for these calls is given here.
What was measured:
DU-145 [1] = assay: Antiproliferative activity against human DU-145 cells assessed as reduction in c-Myc expression level at 2 to 8 uM incubated for 24 hrs by Western blot analysis; type: functional, cell-based; conditions: dose 2-8 µM
DU-145 [2] = assay: Antimigratory activity against human DU-145 cells assessed as upregulation of E-cadherin expression level at 2 to 8 uM incubated for 24 hrs by Western blot analysis; type: functional, cell-based; conditions: dose 2-8 µM
DU-145 [3] = assay: Antitumor activity against human DU-145 xenografted in BALB/c nude mouse as upregulation of cleaved PARP level in tumor at 100 to 200 mg/kg,po administrated once daily for 21 days by Western blot analysis; type: functional, organism-based; conditions: dose 100-200 mg/kg, time 21.0 day
[4] = Acute toxicity in ICR mouse assessed as abnormal body weight change at 1000 to 10000 mg/kg,po and measured upto 14 days; type: organism-based; conditions: in vivo, 336 h, dose 1000-10000 mg/kg, time < 14 day
DU-145 [5] = assay: Antitumor activity against human DU-145 xenografted in BALB/c nude mouse as downregulation of p-4E-BP1 level in tumor at 100 to 200 mg/kg,po administrated once daily for 21 days by Western blot analysis; type: functional, organism-based; conditions: dose 100-200 mg/kg, time 21.0 day
CWR22R [6] = assay: Induction of apoptosis in human 22Rv1 cells assessed as apoptotis rate at 2 uM incubated for 24 hrs by Annexin V-FITC and PI staining based flow cytometry (Rvb= 3.08%); type: functional
[7] = Acute toxicity in ICR mouse assessed as change in heart weight at 1000 to 10000 mg/kg,po and measured after 14 days; type: organism-based; conditions: in vivo, 336 h, dose 1000-10000 mg/kg, time 14 day
CWR22R [8] = assay: Antiproliferative activity against human 22Rv1 cells assessed as reduction in c-Myc expression level at 2 to 8 uM incubated for 24 hrs by Western blot analysis; type: functional, cell-based; conditions: dose 2-8 µM
[9] = Acute toxicity in ICR mouse assessed as change in spleen weight at 1000 to 10000 mg/kg,po and measured after 14 days; type: organism-based; conditions: in vivo, 336 h, dose 1000-10000 mg/kg, time 14 day
DU-145 [10] = assay: Antiproliferative activity against human DU-145 cells assessed as increase in p27 expression level at 2 to 8 uM incubated for 24 hrs by Western blot analysis; type: functional, cell-based; conditions: dose 2-8 µM
DU-145 [11] = assay: Antiproliferative activity against human DU-145 cells assessed as inhibition of clone formation at 1 to 8 uM incubated for 2 weeks by crystal violet staining based assay; type: functional, cell-based; conditions: dose 1-8 µM
DU-145 [12] = assay: Induction of cell cycle arrest in human DU-145 cells assessed as accumulation of cells at G1 phase at 4 uM incubated for 24 hrs by propidium iodide based flow cytometric analysis (Rvb= 53.46%); type: functional
CWR22R [13] = assay: Induction of cell cycle arrest in human 22Rv1 cells assessed as accumulation of cells at S phase at 1 uM incubated for 24 hrs by propidium iodide based flow cytometric analysis (Rvb=20.51 %); type: functional
DU-145 [14] = assay: Induction of apoptosis in human DU-145 cells assessed as apoptotis rate at 2 uM incubated for 24 hrs by Annexin V-FITC and PI staining based flow cytometry (Rvb= 4.36%); type: functional

Cl.O=C(c1ccc(Nc2ncc(F)c(-c3ccc4scnc4c3)n2)nc1)N1CCNCC1
Activity (DU-145 [1]): Active
Activity (DU-145 [2]): Active
Activity (DU-145 [3]): Active
Activity [4]: Non-Toxic
Activity (DU-145 [5]): Active
Activity (CWR22R [6]): 11.25%
Activity [7]: Non-Toxic
Activity (CWR22R [8]): Active
Activity [9]: Non-Toxic
Activity (DU-145 [10]): Active
Activity (DU-145 [11]): Active
Activity (DU-145 [12]): 68.51%
Activity (CWR22R [13]): 16.48%
Activity (DU-145 [14]): 6.73%

Reference: ChEMBL document CHEMBL5247641, “Discovery of Potent DYRK2 Inhibitors with High Selectivity, Great Solubility, and Excellent Safety Properties for the Treatment of Prostate Cancer” (J Med Chem, 2023)
